Experiments:
[1] = test system: ASB11 mRNA; experiment: RT-qPCR analysis of ASB11 mRNA level under ER stress; type: cell-based; settings: 293T, MDA-MB157 and MDA-MB468 cells; 16 h; FIG. 3a
Experimental: FIG. 3. ER stress induces ASB11 transcription through XBP1. (a, b) RT-qPCR analysis of ASB11 mRNA level in 293T cells (a) or 293T cells stably expressing control or XBP1 shRNAs (b) treated with tunicamycin or thapsigargin for 16 h. (c) RT-qPCR analysis of ASB11 mRNA expression in 293T cells transfected with control vector or XBP1s. (d) Schematic representation of the 5′-regulatory region of ASB11 gene, the luciferase reporters and the ChIP primers used in this study. (e, g) Luciferase reporter assay of 293T cells transfected with control or XBP1s expression construct together with the indicated reporter constructs. (f, k) qChIP assays in 293T cells (f) or 293T derivatives (k) treated with 10 μg/ml tunicamycin for 16 h using control IgG or XBP1s antibody for immunoprecipitation and indicated sets of primers for qPCR. […] P values are determined by t-test (a, b right panel, c, e) or 1-way ANOVA with Tukey's post test (b left panel, f, g, i, j, k). **P<0.01; ***P<0.001.
Total mRNA was extracted from cells using TRIZOL reagent (Invitrogen), and equal amounts of RNA were reverse transcribed to cDNA using the iScript™ cDNA Synthesis Kit (Bio-Rad). Quantitative real-time PCR was performed using the Power SYBR Green PCR Master kit (Applied Biosystems). […]

[2] = test system: 293T cells; experiment: ELISA assay of cell apoptosis (Cell Death ELISA) in 293T cells; type: cell-based; settings: control 293T cells, early time point (12 h) after tunicamycin; FIG. 6e
Experimental: FIG. 6. Regulation of ASB11-mediated BIK ubiquitination influences on cell life-death decision under ER stress and DNA damage. (a, b) ELISA assay of cell apoptosis (a) and Western blot analysis of active caspase 3 and cleaved PARP (b) in HCT116 p53^+/+ cells stably expressing indicated ASB11 constructs and treated with 3 μg/ml doxorubicin for 24 h. (c, d) ELISA assay of cell apoptosis (c) and Western blot analysis of active caspase 3 and cleaved PARP (d) in HCT116 p53^+/+ cells transiently transfected with ASB11 and/or BIK and treated with 3 μg/ml doxorubicin for 24 h. (e, f) ELISA assay for cell apoptosis (e) and Western blot analysis of active caspase 3 and cleaved PARP (f) in 293T cells stably expressing indicated shRNAs and treated with […] tunicamycin for 12 h. The knockdown efficiencies of various shRNAs are shown on the bottom. (g) Western blot analysis of BIK level in 293T cells transiently transfected with indicated BIK constructs and treated with 10 μg/ml tunicamycin for 24 h. The equal expression of BIK and BIK(2KR) in untreated cells (by adjusting the amount of plasmid used for transfection) is shown. […]
Apoptosis was analyzed as previously described. […] Cells were harvested and DNA fragmentation was measured by Cell Death ELISA Kit (Roche).

[3] = test system: BIK; experiment: Cycloheximide-chase analysis of BIK turnover in 293T cells; type: cell-based; settings: 10 μg/ml tunicamycin 12 h then 50 μg/ml cycloheximide, FIG. 4b
Experimental: FIG. 4. ER stress stimulates BIK ubiquitination and degradation through ASB11 and p97. (a) Western blot analysis of BIK and ASB11 levels in 293T cells treated with 10 μg/ml tunicamycin or 200 nM of thapsigargin for 16 h. (b) Western blot analysis of BIK levels in 293T cells treated with 10 μg/ml tunicamycin for 12 h and then with 50 μg/ml cycloheximide for indicated time periods. The relative amounts of BIK are indicated on the bottom. (c, e) Analysis of endogenous (c) or exogenous (e) BIK ubiquitination in 293T cells (c) or 293T derivatives as in FIG. 2d (e) transfected with indicated constructs and treated with tunicamycin. (d) Western blot analysis of 293T derivatives as in FIG. 2d treated with 10 μg/ml tunicamycin for 16 h. (f) Western blot analysis of BIK levels in 293T derivatives co-treated with 10 μg/ml tunicamycin and MG132 for 16 h. (g) Western blot analysis of BIK expression in 293T cells co-treated with tunicamycin and 10 μM CB-5083 for 16 h. (h, i) Western blot analysis of BIK expression in 293T cells stably expressing indicated shRNAs and treated with 10 μg/ml tunicamycin for 16 h. The knockdown efficiency of each shRNA is shown on the right. (j) Immunoprecipitation analysis of p97 interaction with ubiquitinated BIK in 293T cells treated with 10 μg/ml tunicamycin for 16 h.

[4] = test system: BIK; experiment: Analysis of endogenous BIK ubiquitination in 293T cells; type: cell-based; settings: FIG. 4c
Experimental: (§1) FIG. 4. ER stress stimulates BIK ubiquitination and degradation through ASB11 and p97. (a) Western blot analysis of BIK and ASB11 levels in 293T cells treated with 10 μg/ml tunicamycin or 200 nM of thapsigargin for 16 h. (b) Western blot analysis of BIK levels in 293T cells treated with 10 μg/ml tunicamycin for 12 h and then with 50 μg/ml cycloheximide for indicated time periods. The relative amounts of BIK are indicated on the bottom. (c, e) Analysis of endogenous (c) or exogenous (e) BIK ubiquitination in 293T cells (c) or 293T derivatives as in FIG. 2d (e) transfected with indicated constructs and treated with tunicamycin. (d) Western blot analysis of 293T derivatives as in FIG. 2d treated with 10 μg/ml tunicamycin for 16 h. (f) Western blot analysis of BIK levels in 293T derivatives co-treated with 10 μg/ml tunicamycin and MG132 for 16 h. (g) Western blot analysis of BIK expression in 293T cells co-treated with tunicamycin and 10 μM CB-5083 for 16 h. (h, i) Western blot analysis of BIK expression in 293T cells stably expressing indicated shRNAs and treated with 10 μg/ml tunicamycin for 16 h. The knockdown efficiency of each shRNA is shown on the right. (j) Immunoprecipitation analysis of p97 interaction with ubiquitinated BIK in 293T cells treated with 10 μg/ml tunicamycin for 16 h. […]

[5] = test system: BIK; experiment: Western blot analysis of BIK levels in 293T cells; type: cell-based; settings: multiple cell lines; 10 μg/ml tunicamycin or 200 nM thapsigargin, 16 h; FIG. 4a
Experimental: FIG. 2. […] (d) Western blot analysis of BIK levels in indicated cells stably expressing control or ASB11 shRNAs.
(§2) Cell extraction was performed with RIPA lysis buffer containing 50 mM Tris (pH 8.0), 0.15 M NaCl, 1% NP40, 1% sodium deoxycholate, 0.1% SDS, 1 mM PMSF, 1 µg/ml aprotinin, and 1 µg/ml leupeptin. Western blot was performed with the standard protocol. For an efficient detection of BIK by Western blot, Tricine-SDS-PAGE was used. Western blot analyses of other proteins were performed with Glycine-SDS-PAGE. Immunoprecipitation was performed and analyzed as previously described. Briefly, cell lysates were incubated with primary antibody for overnight. The Pure Proteome Protein A/G Magnetic Beads (LSKMAGA/G10, EMD Millipore) were then added into cell lysates and incubated for 1.5 h. The beads were washed with RIPA lysis buffer and the bound proteins were analyzed by Western blot.

[6] = test system: ASB11; experiment: Western blot analysis of ASB11 protein expression under ER stress; type: cell-based; settings: multiple cell lines; 10 μg/ml tunicamycin or 200 nM thapsigargin, 16 h; FIG. 4a
Experimental: as §1, with “h.” for “h. (h, i) Western blot analysis of BIK expression in 293T cells stably expressing indicated shRNAs and treated with 10 μg/ml tunicamycin for 16 h. The knockdown efficiency of each shRNA is shown on the right. (j) Immunoprecipitation analysis of p97 interaction with ubiquitinated BIK in 293T cells treated with 10 μg/ml tunicamycin for 16 h.”
(§3) Cell extraction was performed with RIPA lysis buffer containing 50 mM Tris (pH 8.0), 0.15 M NaCl, 1% NP40, 1% sodium deoxycholate, 0.1% SDS, 1 mM PMSF, 1 µg/ml aprotinin, and 1 µg/ml leupeptin. […] Immunoprecipitation was performed and analyzed as previously described. […] The beads were washed with RIPA lysis buffer and the bound proteins were analyzed by Western blot.

[7] = test system: p97 / ubiquitinated BIK; experiment: Immunoprecipitation analysis of p97 interaction with ubiquitinated BIK; type: cell-based; settings: 293T cells, 10 μg/ml tunicamycin, 16 h
Experimental: as §1, with “h.” for “h. (h, i) Western blot analysis of BIK expression in 293T cells stably expressing indicated shRNAs and treated with 10 μg/ml tunicamycin for 16 h. The knockdown efficiency of each shRNA is shown on the right. (j) Immunoprecipitation analysis of p97 interaction with ubiquitinated BIK in 293T cells treated with 10 μg/ml tunicamycin for 16 h.”
as §3

[8] = test system: TNBC cells (Hs578T, MDA-MB157, MDA-MB468); experiment: MTT assay for viability of TNBC cells transfected with BIKDD and treated with IRE1α inhibitor; type: cell-based; settings: 10 or 100 μM STF-083010, 48 h
Experimental: (§4) FIG. 7. […] (a, c) MTT assay for the viability of indicated TNBC cells transfected with […] CMV-BIKDD (a) or VISA-BIKDD (c) and treated with 10 or 100 μM STF-083010 for 48 h. CI values are indicated. (b) Western blot analysis of cleaved PARP in indicated TNBC cells transfected with CMV-BIKDD and treated with 100 μM STF-083010 for 36 h. […] Tumor volume were measured at indicated days and plotted. Data are mean±s.d., *P<0.05; ***P<0.001 by two-way ANOVA with Turkey's post test, n=5. Tumors were surgically removed at day 49 and their sizes are shown on the right. (e) Mice orthotopically implanted with Hs578T cells and treated with VISA-BIKDD lipid nanoparticle together with STF-083010 or DMSO starting at day 28 after tumor cell implantation (see Materials and Methods). Tumor volume were measured at indicated days and plotted. Data are mean±s.d., ***P<0.001 by two-way ANOVA with Turkey's post test, n=5. Tumors were surgically removed at day 66 and their sizes are shown on the right.
MDA-MB157 and MDA-MB 468 cells were seeded at a density of 5×10^3 cells and Hs578T cells were at 2×10^3 cells in 96-well plates. Cells were transfected with BIKDD. In the next day, cells were treated with IRE1α inhibitor or DMSO for 48 h and then with 0.4 mg/ml methylthiazolyldiphenyltetrazolium bromide (MTT) (Sigma) for 2 h. Cells were dissolved in DMSO, followed by absorbance measurement at 590 nm. The combination index (CI) was calculated using the equation: CI=CA/IC50A+CB/IC50B. CA and CB represent the concentrations of the two agents for combined treatment. IC50A and IC50B are the IC50 values for each single treatment, which were determined by treating cells with various dosages of each agent followed by MTT assay. (CI<1) indicates a synergistic effect, (CI>1) corresponds to an antagonistic effect, and (CI=1) represents an additive effect.

[9] = test system: cleaved PARP; experiment: Western blot analysis of cleaved PARP in TNBC cells; type: cell-based; settings: TNBC cells transfected with CMV-BIKDD, 100 μM STF-083010, 36 h; FIG. 7b
Experimental: as §4
as §3, with “leupeptin. Western blot was performed with the standard protocol.” for “leupeptin.”

[10] = test system: Hs578T orthotopic breast tumors; experiment: Orthotopic Hs578T tumor model, cells expressing BIKDD or control vector, treated with STF-083010; type: in vivo, nude mice
Experimental: (§5) All mice were maintained according to the guidelines of animal ethical regulations, and all animal studies were approved by the Experimental Animal Committee, Academia Sinica. […] Seven days later, DMSO or STF-083010 (40 mg/kg) was intraperitoneally administrated every 3 days. […] Twenty-eight days later, DMSO or STF-083010 (40 mg/kg) was intraperitoneally administrated every 3-4 days. […] For both models, tumors were measured every 3 or 4 days, and their volumes were calculated using the equation: mm^3=[…]×length(mm)×(width(mm))^2.

[11] = test system: Hs578T orthotopic breast tumors; experiment: BIKDD gene therapy model: orthotopic Hs578T tumors, intratumoral VISA-BIKDD plus STF-083010; type: in vivo, nude mice
Experimental: as §5

[12] = test system: BIKDD; experiment: BIKDD levels in TNBC cell lines treated with IRE1α inhibitor; type: cell-based; settings: TNBC cell lines Hs578T, MDA-MB157 and MDA-MB468
Experimental: as §2

Molecule | expression of ASB11 mRNA [1] | apoptosis induction [2] | turnover of endogenous BIK [3] | ubiquitination of endogenous BIK [4] | BIK protein level [5] | ASB11 protein expression [6] | interaction of p97 with ubiquitinated BIK [7] | killing of TNBC cells in combination with BIKDD ([8]; CMV-BIKDD transfected Hs578T, MDA-MB157, MDA-MB468, FIG. 7a) | killing effect of co-administration with VISA-BIKDD ([8]; VISA-BIKDD transfected TNBC cells, FIG. 7c) | level of cleaved PARP, combinatory treatment [9] | tumor growth, combined treatment with BIKDD ([10]; BIKDD-expressing Hs578T cells plus STF-083010 40 mg/kg i.p. every 3 days, FIG. 7d) | body weights of mice ([10]; BIKDD-expressing cell model) | tumor growth, agent alone ([10]; BIKDD-expressing cells or STF-083010 40 mg/kg i.p. every 3 days, alone, FIG. 7d) | anti-tumor effect of combined administration compared to BIKDD alone ([11]; VISA-BIKDD 0.75 mg/kg intratumoral every 7 days plus STF-083010 40 mg/kg i.p. every 3-4 days, FIG. 7e) | body weights of mice ([11]; VISA-BIKDD gene therapy model) | BIKDD levels [12]
tunicamycin | upregulated | did not show sign of apoptosis induction | increased | increased | reduced | elevated | increased |  |  |  |  |  |  |  |  | 
O=S(=O)(N=Cc1c(O)ccc2ccccc12)c1cccs1 [STF-083010, N-[(2-Hydroxy-1-naphthalenyl)methylene]-2-thiophenesulfonamide] |  |  |  |  |  |  |  | synergized | synergistic | increased | greatly suppressed | not altered | modest reduction | significant enhancement | not altered | elevated
